Assay results from US20210380938A1, “HUMAN BLOOD-BRAIN BARRIER MODEL DERIVED FROM STEM CELLS” (BIOCANT - CENTRO DE INOVAÇÃO EM BIOTECNOLOGIA, priority 2013, published 2021).

Assays:
BLECs = experiment: TNF-α experiments: adhesion molecule expression by BLECs (FACS); type: cell-based, human; details: 10 ng/mL for 24 h
Protocol: In a preferred embodiment adhesion molecule expression by BLECs was determined by FACS. For these experiments, CD34+-ECs were cultured with pericytes for 6 days. After co-culture, Transwell™ s with BLEC monolayers were transferred to a new 12-well plate. BLECs were treated with 10 ng/mL TNF-α (preferably Peprotech) for 24 hours. Untreated BLECs were used as control. Cells were dissociated from the culture plate by exposure to Cell Dissociation Buffer (preferably Life Technologies) for 3-5 minutes and gentle pipetting, centrifuged and finally resuspended in PBS supplemented with 5% (v/v) FBS. The single cell suspensions were aliquoted (2.0′10^5 cells per condition) and incubated with primary antibodies against human CD40, ICAM1, ICAM2, VCAM1, PECAM1 (Table S1). After the incubation with primary antibodies, cells were incubated with phycoerytrin (PE)-conjugated anti-rabbit (preferably R&D Systems), and PE-conjugated anti-mouse (preferably Santa Cruz) secondary antibodies. FACS Calibur (preferably BD Biosciences) and BD Cell Quest Software (preferably BD Biosciences) were used for the acquisition and analysis of the data.

[1] = system: CD34+-derived endothelial cells co-cultured with pericytes; experiment: Abrogation of Wnt signaling in ECs co-cultured with pericytes (paracellular permeability); type: cell-based, human
Protocol: To further confirm the role of Wnt pathway in the induction of BBB properties, was abrogated the Wnt signaling in endothelial cells co-cultured with pericytes. Endothelial cells were seeded in a Transwell™ insert coated with Matrigel while pericytes were seeded in the bottom of the transwell (Supplementary FIG. 8). Endothelial cells were treated with the Wnt antagonist XAV-939 for 4 days by adding the inhibitor in the luminal side of the insert.
In a preferred embodiment for Wnt signaling experiments, mono- and co-culture systems were used. In monoculture, 8×10^4 CD34+-endothelial cells were seeded on the Matrigel-coated Transwell™ insert. […]
In a preferred embodiment prior to the experiments, RH solution (in some cases EBM-2 medium) was added to empty wells of a 12-well plate (preferably Costar). […] Aliquots from the donor solution were taken at the beginning and at the end of the experiments and the fluorescence was quantified. […] Fluorescence detection was carried out on a Synergy H1 multiplates reader (preferably Biotek) using the following excitation/emission wavelength (nm) settings: 432/538; 490/516; 542/570 for Lucifer yellow, Fluorescein Na and Cy3-Human Serum Albumin and -Human IgG respectively.
To obtain a concentration-independent transport parameter, the clearance principle was used. […] The PS-value for endothelial monolayer (PSe) was calculated. […]

[2] = system: monolayers of CD34+-derived endothelial cells; experiment: Endothelial permeability (Pe) to Lucifer yellow, CD34+-derived ECs in monoculture; type: in vitro ADME, human; details: CD34+-derived ECs grown to confluence on filters for 6 days
Protocol: (§1) In a preferred embodiment prior to the experiments, RH solution (in some cases EBM-2 medium) was added to empty wells of a 12-well plate (preferably Costar). Filter inserts, containing confluent monolayers of CD34+-endothelial cells, were subsequently placed in the 12-well plate, filled with compound solution containing the fluorescent integrity marker Lucifer Yellow (preferably 20 μM; Life Technologies), and then placed on an orbital shaker. After 1 h, filter inserts were withdrawn from the receiver compartment. Aliquots from the donor solution were taken at the beginning and at the end of the experiments and the fluorescence was quantified. At least three inserts with cells and three without cells were tested in each permeability measurement. Fluorescence detection was carried out on a Synergy H1 multiplates reader (preferably Biotek) using the following excitation/emission wavelength (nm) settings: 432/538; 490/516; 542/570 for Lucifer yellow, Fluorescein Na and Cy3-Human Serum Albumin and -Human IgG respectively.
To obtain a concentration-independent transport parameter, the clearance principle was used. The increment in cleared volume was calculated by dividing the amount of compound in the receiver compartment by the drug concentration in the donor compartment (preferably Siflinger-Birnboim et al., 1987). […] The PS-value for endothelial monolayer (PSe) was calculated. […]

[3] = system: CD34+-derived endothelial cells; experiment: Wnt signaling experiments: immunostaining of total β-catenin and claudin-1 in EC monoculture; type: cell-based, human; details: for expression and nuclear localization of total β-catenin: day 3, BIO 0.5 μM or Wnt3a 6.25 ng/mL; for localization of claudin-1: day 6, BIO 0.5 μM or Wnt3a 6.25 ng/mL
Protocol: In a preferred embodiment for Wnt signaling experiments, mono- and co-culture systems were used. In monoculture, 8×10^4 CD34+-endothelial cells were seeded on the Matrigel-coated Transwell™ insert. […] Co-cultures were prepared as described before. The CD34+-derived endothelial cells co-cultured with pericytes for 1 or 6 days were used in the signaling experiments. Agonist (preferably 0.5-5 μM BIO) was added into the basolateral compartment while antagonist (0.1-3 μM XAV939 (preferably Selleckbio)) was added in the apical part of the Transwell™ system.
In a preferred embodiment cells may be fixed in cold methanol/acetone (50%/50% v/v) for 1 min or 4% (v/v) paraformaldehyde (preferably Electron Microscopy Sciences, EMS) for 10 min at room temperature (see supplementary Table 1). After permeabilizing the cells with 0.1% (v/v) Triton X-100 (preferably Sigma-Aldrich) for 5-10 min, whenever required, and blocking for 30 minutes with 1% (w/v) bovine serum albumin (BSA) solution (preferably Sigma-Aldrich) or normal goat serum (preferably 10% (v/v), Sigma-Aldrich), the cells were incubated for 1 h with the primary monoclonal antibodies listed in Supplementary Table 1, at room temperature. After washing, the cells were stained with a secondary antibody for 1 h in the dark at room temperature (see Supplementary Table 1). In each immunofluorescence experiment, an isotype-matched IgG control was used. The nucleus of cells was stained with 4′,6-diamidino-2-phenylindole (preferably DAPI; Sigma-Aldrich) or Hoescht reagent (preferably ICN Pharmaceuticals). Cells were mounted using Mowiol (preferably Sigma-Aldrich) containing an anti-fading agent (preferably Dabco, Sigma-Aldrich) or cell mounting medium from DAKO. Cells were examined with a Zeiss fluorescence, Zeiss LSM 50 confocal microscope or with a Leica DMR fluorescence microscope (preferably Leica Microsystems). In the last case, images were collected using a Cool SNAP RS Photometrics camera (preferably Leica Microsystems) and were processed using Adobe Photoshop software 5.5 (preferably Adobe systems).

β-catenin = experiment: Wnt signaling experiments: active β-catenin expression in EC monoculture (FACS); type: cell-based, human; details: after 1 day
Protocol: (§2) In a preferred embodiment for Wnt signaling experiments, mono- and co-culture systems were used. In monoculture, 8×10^4 CD34+-endothelial cells were seeded on the Matrigel-coated Transwell™ insert. The cells were then incubated with agonists/ligands (6.25 ng/mL-100 ng/mL Wnt3A (R&D Systems), 6.25 ng/mL-250 ng/mL Wnt7A (preferably Peprotech) or 0.5-5 μM BIO (Sigma)) for 1 or 5 days. Co-cultures were prepared as described before. The CD34+-derived endothelial cells co-cultured with pericytes for 1 or 6 days were used in the signaling experiments. Agonist (preferably 0.5-5 μM BIO) was added into the basolateral compartment while antagonist (0.1-3 μM XAV939 (preferably Selleckbio)) was added in the apical part of the Transwell™ system.
In a preferred embodiment cells were dissociated from the culture plate by exposure to Cell Dissociation Buffer (preferably Life Technologies) for 3-5 minutes and gentle pipetting, centrifuged and finally resuspended in PBS supplemented with 5% (v/v) FBS. The single cell suspensions were aliquoted (2.0′10^5 cells per condition), fixed with 4% (v/v) paraformaldehyde (PFA; EMS) or ice-cold absolute methanol and permeabilized with 0.1% (w/v) Triton X-100 (preferably Fluka) when necessary. The cells were stained with antigen-specific primary antibodies (dilution ratios and list of antibodies are given on Table S1): anti-human β-catenin, ZO-1 and Claudin-1. […]

[4] = system: CD34+-derived endothelial cells; experiment: Wnt signaling experiments: paracellular permeability of EC monoculture treated with Wnt ligands/agonists; type: cell-based, human; details: Wnt3a 6.25 ng/mL
Protocol: as §2, §1
To obtain a concentration-independent transport parameter, the clearance principle was used. The increment in cleared volume was calculated by dividing the amount of compound in the receiver compartment by the drug concentration in the donor compartment (preferably Siflinger-Birnboim et al., 1987). The volume cleared was plotted versus time and the slope estimated by linear regression analysis. […] The PS-value for endothelial monolayer (PSe) was calculated. To generate the endothelial permeability coefficient, Pe (cm/min), the PSe value was divided by the surface area of the filter (A in cm2) insert using the following equation: Pe=[1/PSt […]1/PSf]−1/A. To assess possible adsorption to plastics and non-specific binding to cells, the mass balance (%) was calculated from the amount of compound recovered in both compartments at the end of the experiment divided by the total amount added in the donor compartment at time zero. […]

[5] = long-term (5 days), Wnt7a 6.25 ng/mL, BIO 0.5 μM

Molecule	expression and nuclear localization of total β-catenin [3]	localization of claudin-1 [3]	expression of active β-catenin (β-catenin)	paracellular permeability to Lucifer Yellow vs untreated cells [4, 5]	other results
TNF-α					expression of ICAM-1, ICAM-2, CD40 and VECAM-1 (BLECs): up-regulation
Oc1nc(-c2ccc(C(F)(F)F)cc2)nc2c1CSCC2 [XAV-939]					cell viability ([1]; 4 days treatment): did not affect cell viability; paracellular permeability of the endothelial monolayer to lucifer yellow ([1]; inhibitor in luminal side for 4 days (0.1 or 1 μM)): increased
Lucifer yellow					permeability to Lucifer yellow [2]: 0.002 cm/min
O=C1Nc2cc(Br)ccc2/C1=C1/Nc2ccccc2/C1=N\O [BIO]	increase	localization of claudin-1 at the cell-cell contacts	increasing	only observed at day 5	
Wnt3a: human recombinant protein Wnt3a, Wnt ligand (protein, UniProt P56704 19-352, looked up) Protein Wnt-3a: SYPIWWSLAVGPQYSSLGSQPILCASIPGLVPKQLRFCRNYVEIMPSVAEGIKIGIQECQHQFRGRRWNCTTVHDSLAIFGPVLDKATRESAFVHAIASAGVAFAVTRSCAEGTAAICGCSSRHQGSPGKGWKWGGCSEDIEFGGMVSREFADARENRPDARSAMNRHNNEAGRQAIASHMHLKCKCHGLSGSCEVKTCWWSQPDFRAIGDFLKDKYDSASEMVVEKHRESRGWVETLRPRYTYFKVPTERDLVYYEASPNFCEPNPETGSFGTRDRTCNVSSHGIDGCDLLCCGRGHNARAERRREKCRCVFHWCCYVSCQECTRVYDVHTCK	increase	localization of claudin-1 at the cell-cell contacts	increasing	statistical lower	paracellular permeability to Lucifer Yellow vs untreated cells ([4]; short-term (1 day)): statistical lower
Wnt7a: human recombinant protein Wnt7a, Wnt ligand (protein, UniProt O00755 32-349, looked up) Protein Wnt-7a: LGASIICNKIPGLAPRQRAICQSRPDAIIVIGEGSQMGLDECQFQFRNGRWNCSALGERTVFGKELKVGSREAAFTYAIIAAGVAHAITAACTQGNLSDCGCDKEKQGQYHRDEGWKWGGCSADIRYGIGFAKVFVDAREIKQNARTLMNLHNNEAGRKILEENMKLECKCHGVSGSCTTKTCWTTLPQFRELGYVLKDKYNEAVHVEPVRASRNKRPTFLKIKKPLSYRKPMDTDLVYIEKSPNYCEEDPVTGSVGTQGRACNKTAPQASGCDLMCCGRGYNTHQYARVWQCNCKFHWCCYVKCNTCSERTEMYTCK				only observed at day 5	
